The source of these data is patent US9828379B2 (priority 2013, dated 2017).

The structures appear in SMILES notation. Converted amounts (≈) assume the structure as drawn.

In one experiment the target is T1, FAAH (Mus musculus, UniProt O08914).
T1 sequence (O08914 1-579): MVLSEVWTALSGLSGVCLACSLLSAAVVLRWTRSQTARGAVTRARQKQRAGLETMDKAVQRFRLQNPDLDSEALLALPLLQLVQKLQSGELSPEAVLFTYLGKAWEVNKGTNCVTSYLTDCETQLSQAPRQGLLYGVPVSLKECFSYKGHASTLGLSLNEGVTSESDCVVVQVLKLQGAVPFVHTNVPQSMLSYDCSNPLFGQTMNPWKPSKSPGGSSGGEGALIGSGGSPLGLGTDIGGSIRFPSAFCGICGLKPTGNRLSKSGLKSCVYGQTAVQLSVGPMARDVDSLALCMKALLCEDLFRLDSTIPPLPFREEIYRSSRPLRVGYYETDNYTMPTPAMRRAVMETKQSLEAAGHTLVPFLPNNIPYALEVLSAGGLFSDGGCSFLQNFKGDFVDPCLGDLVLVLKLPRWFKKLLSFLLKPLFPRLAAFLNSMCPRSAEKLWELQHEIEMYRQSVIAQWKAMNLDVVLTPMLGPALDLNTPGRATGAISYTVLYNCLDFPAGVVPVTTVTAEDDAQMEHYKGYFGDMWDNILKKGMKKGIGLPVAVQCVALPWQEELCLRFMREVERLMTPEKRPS
The experiment in a line: In vitro competitive activity-based protein profiling (Table 2, % inhibition at 1 μM). In kind it is biochemical. The settings on record: read-out: % Inhibition at 1 μM FAAH.

For another experiment, the target named is T2, ABHD6 (Mus musculus, UniProt Q8R2Y0).
T2 sequence (Q8R2Y0 1-336): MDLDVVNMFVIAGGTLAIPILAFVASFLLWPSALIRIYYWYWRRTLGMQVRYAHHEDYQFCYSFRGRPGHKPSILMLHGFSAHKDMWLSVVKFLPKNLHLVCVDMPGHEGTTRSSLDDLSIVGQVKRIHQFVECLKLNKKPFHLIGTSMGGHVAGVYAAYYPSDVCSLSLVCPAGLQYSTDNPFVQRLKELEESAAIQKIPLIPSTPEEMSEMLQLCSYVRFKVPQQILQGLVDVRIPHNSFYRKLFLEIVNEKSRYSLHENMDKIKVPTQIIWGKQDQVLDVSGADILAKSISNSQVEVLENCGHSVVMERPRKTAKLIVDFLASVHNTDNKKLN
The experiment is described as above. It is filed as biochemical. The settings on record: read-out: % Inhibition at 1 μM ABHD6.

A further experiment concerns Trypanosoma brucei. The experiment in a line: Alamar Blue assay against Trypanosoma brucei. In kind it is cell-based. The settings on record: read-out: IC50 T. brucei. The text has this:
The ability of disclosed compounds to inhibit Trypanosoma brucei (T. brucei) can be assessed using the Alamar Blue® assay (Räz et al., 1997. The Alamar Blue® assay to determine drug sensitivity of African trypanosomes (T.b. rhodesiense and T.b. gambiense) in vitro. Acta Tropica 68, 139-147). Bloodstream form trypanosomes are cultivated in Minimum Essential Medium (MEM). Standard curves can be generated by serially diluting T. brucei in culture medium and measuring fluorescence and absorbance after a period of incubation with Alamar Blue®. A drug sensitivity assay can be performed as described for the LILIT (long incubation low inoculation test) previously described (Brun and Lun, 1994. Drug sensitivity of Chinese Trypanosoma evansi and Trypanosoma equiperdum isolates. Vet. Parasitol. 52, 37-46) with minor modifications. Briefly, bloodstream form trypanosomes can be inoculated into microtiter plates and incubated in the presence of various disclosed compound concentrations for a period of time. Background fluorescence and absorbance of the drug-containing medium are determined for each drug dilution. Wells without drug serve as controls. Alamar Blue® is added after a period of time and fluorescence and colorimetric development is later determined.
In general terms: Alamar Blue is a resazurin reagent that responds to reducing activity.

Another experiment addresses T3, MAGL (Mus musculus, UniProt O35678).
T3 sequence (O35678 1-303): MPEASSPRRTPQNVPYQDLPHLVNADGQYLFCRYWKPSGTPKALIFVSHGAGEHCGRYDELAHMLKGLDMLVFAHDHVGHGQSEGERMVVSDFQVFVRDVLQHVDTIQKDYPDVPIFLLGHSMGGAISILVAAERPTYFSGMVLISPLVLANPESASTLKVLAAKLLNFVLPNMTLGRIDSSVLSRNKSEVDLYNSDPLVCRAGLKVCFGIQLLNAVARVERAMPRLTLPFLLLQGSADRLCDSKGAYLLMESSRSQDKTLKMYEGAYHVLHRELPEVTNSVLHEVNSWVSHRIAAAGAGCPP
The experiment in a line: In vitro competitive activity-based protein profiling (Table 2, % inhibition at 1 μM). It is filed as biochemical. As to conditions: read-out: % Inhibition at 1 μM MAGL. As for the experimental part: After 30 min, FP—Rh (1.0 μL, 50 μM in DMSO) was added and the mixture was incubated for another 30 min at 37° C. Reactions were quenched with SDS loading buffer (50 μL-4×) and run on SDS-PAGE.
Cell lysates were diluted with mock proteomes for use in competitive ABPP experiments.

Experiment [1] relates to Mycobacterium Tuberculosis (Mtb). The experiment in a line: Microplate Alamar Blue assay (MABA) against Mtb. In kind it is cell-based. As for the experimental part: The activity of disclosed compounds against Mtb can be assessed according to a method based on the microplate Alamar Blue® assay (MABA) (Collins and Franzblau, 1997. Microplate alamar blue assay versus BACTEC 460 system for high-throughput screening of compounds against Mycobacterium tuberculosis and Mycobacterium avium. Antimicrobial Agents and Chemotherapy 41, 1004-1009). Briefly, stock solutions of disclosed compounds are prepared and added to, for example, two wells of a microplate. One well is inoculated with broth containing Mtb. The second well receives only media in order to assess background fluorescence. For MICs, serial dilutions are performed in media. Each microplate is incubated for a period of time. After incubation, one control growth is developed with a mixture of Alamar Blue® solution and Tween 80. The plates are then reincubated. Afterwards, if the well turns pink, the dye mixture is placed into all wells and the plates are reincubated for an additional period of time. The mean fluorescence units (FU) of media-only wells are subtracted from all other wells. The results are expressed in terms of % inhibition defined as 1-(test well FU/mean FU of triplicate bacteria-only wells)×100. The MIC is defined as the lowest concentration effecting a reduction in fluorescence of ≧90% relative to bacteria-only controls.

Experiment [2] relates to Mycobacterium tuberculosis H37Rv (pFCA-luxAB). Briefly: microbe, parasite or virus in culture. In kind it is cell-based. As to conditions: for inhibition at 100 µM: read-out: % Inhibition at 100 μM Mtb LORA.

The term inhibition denotes the relative decrease from the control value, in per cent. Usually IC50 stands for the concentration that inhibits the measured activity by half. Consider `O=C(ON1C(=O)CCC1=O)N1CC2CN(Cc3ccc(Cl)cc3N3CCC4(CCOCC4)C3)CC2C1` (stereo not drawn) [Example 106, 2,5-Dioxopyrrolidin-1-yl 5-[(4-chloro-2-[8-oxa-2-azaspiro[4.5]decan-2-yl]phenyl)methyl]-octahydropyrrolo[3,4-c]pyrrole-2-carboxylate], for which the results for the inhibition at 1 µM at FAAH, at ABHD6 and on MAGL were less than 25%, less than 25% and 25 to 75%, respectively. For the same compound, the IC50 with Trypanosoma brucei is less than 5 µM.
As for `O=C(ON1C(=O)CCC1=O)N1CC2CN(Cc3ccc(-c4ccccc4)cc3)CC2C1` (stereo not drawn) [Example 84, 2,5-Dioxopyrrolidin-1-yl 5-[(4-phenylphenyl)methyl]-octahydropyrrolo[3,4-c]pyrrole-2-carboxylate], the inhibition at 1 µM is more than 75% on FAAH, 25 to 75% at ABHD6 and more than 75% on MAGL. Further, the MIC in experiment [1] was 51 to 100 µM (≈ 21.4 to 41.9 µg/mL). Further, the inhibition at 100 µM in experiment [2] is more than 80%.
Turning to `O=C(OC(C(F)(F)F)C(F)(F)F)N1CC2CN(Cc3ccc(-c4ccccc4)cc3)CC2C1` (stereo not drawn) [Example 9, 1,1,1,3,3,3-Hexafluoropropan-2-yl 5-[(4-phenylphenyl)methyl]-octahydropyrrolo[3,4-c]pyrrole-2-carboxylate], the inhibition at 1 µM at FAAH was 25 to 75%; at ABHD6, 25 to 75%; on MAGL, more than 75%. Besides, the MIC in experiment [1] and in experiment [2] (read-out: MIC Mtb LORA) was not above 50 µM throughout. In experiment [2], the inhibition at 100 µM is more than 80%.
As to `O=C(ON1C(=O)CCC1=O)N1CC2CN(C(c3ccc(Cl)cc3)c3ccc(Cl)cc3)CC2C1` (stereo not drawn) [Example 83, 2,5-Dioxopyrrolidin-1-yl 5-[bis(4-chlorophenyl)methyl]-octahydropyrrolo[3,4-c]pyrrole-2-carboxylate], the inhibition at 1 µM on FAAH was less than 25%; at ABHD6 it was less than 25%; at MAGL, 25 to 75%. This compound also yielded an MIC in experiment [1] not above 50 µM. In addition, the inhibition at 100 µM in experiment [2] was more than 80%.
In the case of `CNC(=O)C(OC(=O)N1CC2CN(Cc3ccc(-c4ccccc4)cc3)CC2C1)C(F)(F)F` (stereo not drawn) [Example 126, 2,2,2-Trifluoro-1-(methylcarbamoyl)ethyl 5-[(4-phenylphenyl)methyl]-octahydropyrrolo[3,4-c]pyrrole-2-carboxylate], the inhibition at 1 µM on FAAH is 25 to 75%; on ABHD6, less than 25%; on MAGL, 25 to 75%. In experiment [1], this compound registered an MIC of 51 to 100 µM (≈ 23.5 to 46.1 µg/mL). In addition, in experiment [2], the inhibition at 100 µM is more than 80%.
Turning to `CNC(=O)C(OC(=O)N1CC2CN(C(c3ccc(Cl)cc3)c3ccc(Cl)cc3)CC2C1)C(F)(F)F` (stereo not drawn) [Example 125, 2,2,2-Trifluoro-1-(methylcarbamoyl)ethyl 5-[bis(4-chlorophenyl)methyl]-octahydropyrrolo[3,4-c]pyrrole-2-carboxylate], the inhibition at 1 µM on FAAH is less than 25%; at ABHD6, less than 25%; on MAGL, 25 to 75%. Also, the MIC in experiment [1] is not above 50 µM. The inhibition at 100 µM in experiment [2] was more than 80%.
